Source: ChEMBL document CHEMBL5390231, “Development of small molecule inhibitors targeting RNA helicase DHX33 as anti-cancer agents” (Bioorg Med Chem Lett, 2023)
Activity calls are given as the source filed them. The calls are words filed in the database; no cut-off is given here.

Experiments:
[1] = test system: U-251; assay: Antiproliferative activity against human U-251MG cells overexpressing DHX33 assessed as inhibition of cell growth measured after 48 hrs by CCK-8 assay; assay type: functional, cell-based; details: U-251, 48 h
[2] = Microsomal stability in human liver microsome assessed as intrinsic clearance; assay type: ADME; details: liver microsomes, read-out: CLH
[3] = test system: A549; assay: Downregulation of MCM4 mRNA expression in human A549 cells by SYBR dye based RT-PCR analysis; assay type: functional, cell-based
[4] = test system: A549; assay: Downregulation of E2F1 mRNA expression in human A549 cells by SYBR dye based RT-PCR analysis; assay type: functional, cell-based
[5] = molecular target: T1, ATP-dependent RNA helicase DHX33 (Mus musculus, UniProt Q80VY9); assay: Inhibition of N-terminal/C-terminal 6x His-tagged wild type recombinant mouse DHX33 transformed in Escherichia coli BL21(DE3)pLysS cells
T1 sequence (Q80VY9 whole entry): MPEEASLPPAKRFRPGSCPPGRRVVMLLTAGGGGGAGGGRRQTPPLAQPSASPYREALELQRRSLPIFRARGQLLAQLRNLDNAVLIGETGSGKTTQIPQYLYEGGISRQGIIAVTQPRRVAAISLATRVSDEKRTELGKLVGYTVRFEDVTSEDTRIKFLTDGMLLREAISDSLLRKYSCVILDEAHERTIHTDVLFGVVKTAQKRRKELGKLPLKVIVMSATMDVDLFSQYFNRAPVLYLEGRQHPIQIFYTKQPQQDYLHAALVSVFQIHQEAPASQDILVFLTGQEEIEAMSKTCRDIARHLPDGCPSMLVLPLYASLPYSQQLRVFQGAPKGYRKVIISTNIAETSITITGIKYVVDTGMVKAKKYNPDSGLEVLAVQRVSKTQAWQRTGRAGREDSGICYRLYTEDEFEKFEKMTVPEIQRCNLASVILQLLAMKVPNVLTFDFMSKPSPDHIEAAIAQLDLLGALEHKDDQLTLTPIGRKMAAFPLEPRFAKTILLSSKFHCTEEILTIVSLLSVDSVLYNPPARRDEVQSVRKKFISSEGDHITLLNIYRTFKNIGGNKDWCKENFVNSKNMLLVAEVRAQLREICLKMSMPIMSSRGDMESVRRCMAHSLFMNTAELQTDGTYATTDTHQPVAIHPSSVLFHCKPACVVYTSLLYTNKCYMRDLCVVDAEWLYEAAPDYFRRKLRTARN

[6] = molecular target: T2, Probable ATP-dependent RNA helicase DDX6 (Homo sapiens, UniProt P26196); assay: Inhibition of N-terminal thioredoxin-tagged human recombinant DDX6 transformed in Escherichia coli BL21(DE3)pLysS cells
T2 sequence (P26196 whole entry): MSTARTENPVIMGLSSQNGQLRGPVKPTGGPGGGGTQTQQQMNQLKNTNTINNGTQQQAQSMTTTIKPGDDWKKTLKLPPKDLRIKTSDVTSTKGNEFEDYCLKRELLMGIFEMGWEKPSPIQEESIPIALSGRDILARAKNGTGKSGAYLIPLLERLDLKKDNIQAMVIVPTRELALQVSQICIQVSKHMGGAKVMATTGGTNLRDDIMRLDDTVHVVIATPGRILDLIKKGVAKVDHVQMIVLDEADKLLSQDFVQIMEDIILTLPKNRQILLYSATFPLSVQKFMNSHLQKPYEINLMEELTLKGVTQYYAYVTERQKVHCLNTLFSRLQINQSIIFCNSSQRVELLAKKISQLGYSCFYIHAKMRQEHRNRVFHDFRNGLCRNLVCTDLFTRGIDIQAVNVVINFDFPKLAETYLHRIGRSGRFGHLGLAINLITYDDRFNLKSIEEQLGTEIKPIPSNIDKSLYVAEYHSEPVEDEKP

[7] = molecular target: T3, Putative pre-mRNA-splicing factor ATP-dependent RNA helicase DHX32 (Homo sapiens, UniProt Q7L7V1); assay: Inhibition of N-terminal thioredoxin-tagged human recombinant DHX32 transformed in Escherichia coli BL21(DE3)pLysS cells
T3 sequence (Q7L7V1 whole entry): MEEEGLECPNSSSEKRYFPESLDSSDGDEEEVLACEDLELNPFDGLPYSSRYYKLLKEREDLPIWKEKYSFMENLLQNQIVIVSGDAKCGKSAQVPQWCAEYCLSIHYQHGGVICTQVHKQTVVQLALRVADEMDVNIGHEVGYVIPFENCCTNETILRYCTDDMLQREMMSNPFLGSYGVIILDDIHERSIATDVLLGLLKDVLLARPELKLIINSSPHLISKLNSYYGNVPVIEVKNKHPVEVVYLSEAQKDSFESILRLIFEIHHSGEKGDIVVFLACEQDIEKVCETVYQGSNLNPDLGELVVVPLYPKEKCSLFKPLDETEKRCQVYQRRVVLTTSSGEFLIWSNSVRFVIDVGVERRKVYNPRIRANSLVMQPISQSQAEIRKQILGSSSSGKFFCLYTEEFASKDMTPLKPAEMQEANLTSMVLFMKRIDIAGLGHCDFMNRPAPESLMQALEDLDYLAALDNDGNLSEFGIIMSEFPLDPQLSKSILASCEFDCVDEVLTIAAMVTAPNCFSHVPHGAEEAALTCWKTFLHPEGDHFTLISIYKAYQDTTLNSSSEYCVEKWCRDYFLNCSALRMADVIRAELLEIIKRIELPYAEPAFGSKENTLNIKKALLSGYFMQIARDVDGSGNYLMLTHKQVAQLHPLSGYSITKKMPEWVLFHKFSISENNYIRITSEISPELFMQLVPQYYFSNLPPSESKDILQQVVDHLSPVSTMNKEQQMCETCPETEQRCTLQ

[8] = test system: A549; assay: Downregulation of CyclinE2 mRNA expression in human A549 cells by SYBR dye based RT-PCR analysis; assay type: functional, cell-based
[9] = test system: A549; assay: Downregulation of CyclinB2 mRNA expression in human A549 cells by SYBR dye based RT-PCR analysis; assay type: functional, cell-based
[10] = test system: A549; assay: Downregulation of MCM7 mRNA expression in human A549 cells by SYBR dye based RT-PCR analysis; assay type: functional, cell-based
[11] = test system: A549; assay: Downregulation of MCM2 mRNA expression in human A549 cells by SYBR dye based RT-PCR analysis; assay type: functional, cell-based
[12] = test system: A549; assay: Downregulation of FEN1 mRNA expression in human A549 cells by SYBR dye based RT-PCR analysis; assay type: functional, cell-based
[13] = molecular target: T4, Probable ATP-dependent RNA helicase DDX59 (Homo sapiens, UniProt Q5T1V6); assay: Inhibition of C-terminal 6xHis-tagged human recombinant DDX59 transformed in Escherichia coli BL21(DE3)pLysS cells
T4 sequence (Q5T1V6 whole entry): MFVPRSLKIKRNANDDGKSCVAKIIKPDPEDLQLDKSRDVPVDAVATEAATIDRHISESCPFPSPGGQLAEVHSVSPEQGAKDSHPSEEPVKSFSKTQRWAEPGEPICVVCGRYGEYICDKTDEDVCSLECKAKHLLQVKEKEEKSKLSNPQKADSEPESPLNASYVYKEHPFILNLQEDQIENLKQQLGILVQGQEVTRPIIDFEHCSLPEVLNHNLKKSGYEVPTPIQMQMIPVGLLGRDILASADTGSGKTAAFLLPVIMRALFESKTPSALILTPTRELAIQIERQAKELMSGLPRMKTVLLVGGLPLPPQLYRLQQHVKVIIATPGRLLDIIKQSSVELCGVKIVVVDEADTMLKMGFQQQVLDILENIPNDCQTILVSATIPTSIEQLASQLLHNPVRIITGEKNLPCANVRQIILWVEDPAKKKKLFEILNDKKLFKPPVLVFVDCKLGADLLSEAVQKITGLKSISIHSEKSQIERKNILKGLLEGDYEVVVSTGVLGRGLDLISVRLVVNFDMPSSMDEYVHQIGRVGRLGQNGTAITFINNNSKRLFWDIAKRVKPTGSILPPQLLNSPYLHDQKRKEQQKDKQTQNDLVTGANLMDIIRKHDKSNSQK

[14] = test system: A549; assay: Downregulation of MCM3 mRNA expression in human A549 cells by SYBR dye based RT-PCR analysis; assay type: functional, cell-based

Compound | IC50 [1] [µM] | further results
Cc1ccc2nc(/C(C#N)=C/c3cc(C)n(-c4oc(C)c(C)c4C#N)c3C)[nH]c2c1 | 2.44 | 
COc1cccc2nc(/C(C#N)=C/c3cc(C)n(-c4oc(C)c(C)c4C#N)c3C)[nH]c12 | > 10 | 
COc1ccc2nc(NC(=O)c3cc(C)n(-c4oc(C)nc4C#N)c3C)[nH]c2c1 | 0.07 | 
COc1ccc2nc(/C(C#N)=C/c3cc(C)n(-c4oc(C)c(C)c4C#N)c3C)[nH]c2n1 | 4.08 | 
Cc1oc(-n2c(C)cc(/C=C(\C#N)c3nc4ccccc4[nH]3)c2C)c(C#N)c1C | 7.82 | Activity [3]: Active; Activity [4]: Active; IC50 [5]: 0.52 µM; IC50 [6]: > 4 µM; IC50 [7]: > 5 µM; Activity [8]: Active; Activity [9]: Active; Activity [10]: Active; Activity [11]: Active; Activity [12]: Active; IC50 [13]: > 5 µM; Activity [14]: Active
COc1cc2nc(/C(C#N)=C/c3cc(C)n(-c4oc(C)c(C)c4C#N)c3C)[nH]c2cc1OC | 1.54 | 
Cc1oc(-n2c(C)cc(/C=C(\C#N)c3nc4ccc(F)cc4[nH]3)c2C)c(C#N)c1C | 3.2 | 

Further lines, with some results ahead:

IC50 [1] [µM] | Compound | further results
0.54 | COc1ccc2nc(/C(C#N)=C/c3cc(C)n(-c4oc(C)c(C)c4C#N)c3C)[nH]c2c1 | 
4.68 | COc1cncc2nc(/C(C#N)=C/c3cc(C)n(-c4sc(C)c(C)c4C#N)c3C)[nH]c12 | 
0.02 | COc1cc2nc(/C(C#N)=C/c3cc(C)n(-c4sc(C)cc4C#N)c3C)[nH]c2cn1 | CLint scaled [2]: 187 mL/min/kg
0.07 | COc1cc2nc(/C(C#N)=C/c3cc(C)n(-c4oc(C)c(C)c4C#N)c3C)[nH]c2cn1 | 
0.18 | COc1cc2nc(/C(C#N)=C/c3cc(C)n(-c4sc(C)cc4C(N)=O)c3C)[nH]c2cn1 | CLint scaled [2]: 140 mL/min/kg
0.03 | COc1cc2nc(/C(C#N)=C/c3cc(C)n(-c4sc(C)c(C)c4C#N)c3C)[nH]c2cn1 | 
0.11 | COc1ccc2nc(/C(C#N)=C/c3cc(C)n(-c4sc(C)cc4C#N)c3C)[nH]c2c1 | CLint scaled [2]: 290 mL/min/kg
3.97 | COc1nccc2nc(/C(C#N)=C/c3cc(C)n(-c4sc(C)c(C)c4C#N)c3C)[nH]c12 | 
